# Results from patent US20080194585A1, “Fungicidal Pyrazine Derivatives” (priority 2005, published 2008).
# Marks after values point to notes of the source that are not given here.
# Assays:
# Plasmopara viticola = experiment: Test D: grape downy mildew, spray after inoculation of grape seedlings; type: in vivo
# Source text: Upon removal, disease ratings were made. […] A dash (-) indicates no test results.
# Phytophthora infestans = experiment: whole plant or invertebrate; type: in vivo
# Septoria tritici = experiment: Test J: wheat leaf blotch, preventive spray on wheat seedlings; type: in vivo
# Source text: A dash (-) indicates no test results.
# [1] = system: Puccinia recondita f. sp. tritici; experiment: Test K: wheat leaf rust, preventive spray on wheat seedlings
# Botrytis cinerea = experiment: Test E: tomato botrytis, preventive spray on tomato seedlings
# Septoria nodorum = experiment: Test H: wheat glum blotch, preventive spray on wheat seedlings
# Experimental: (the causal agent of wheat glum blotch) and incubated in a saturated atmosphere at 20° C. for 48 h, and then moved to a growth chamber at 22° C. for 5 days, after which disease ratings were made.
# [2] = system: Erysiphe graminis f. sp. tritici; experiment: Test L: wheat powdery mildew, preventive spray on wheat seedlings
# Sclerotinia sclerotiorum = experiment: Test C: cucumber white mold, preventive spray on cucumber seedlings
# Pythium aphanidermatum = experiment: Test A: bluegrass pythium blight, preventive spray on bluegrass seedlings
# Rhizoctonia oryzae = experiment: Test G: turf brown patch, preventive spray on creeping bent grass seedlings
# Experimental: (the causal agent of turf brown patch) and incubated in a saturated atmosphere at 27° C. for 24 h, and then moved to a growth chamber at 27° C. for 5 days, after which disease ratings were made.
# [3] = system: Colletotrichum orbiculare; experiment: Test B: cucumber Colletotrichum anthracnose, preventive spray on cucumber seedlings
# fusarium graminearium = experiment: Test I: wheat head scab, preventive spray on wheat seedlings
# Experimental: (the causal agent of wheat head scab) and incubated in a saturated atmosphere at 20° C. for 72 h, and then moved to a growth chamber at 22° C. for 5 days, after which disease ratings were made.
# [4] = 40 ppm (marked *), 100 = 100% disease control, 0 = no control
# [5] = 200 ppm, 100 = 100% disease control, 0 = no control
Compound,Test D disease control rating (Plasmopara viticola; [4]),Test F disease control rating (Phytophthora infestans; [4]),Test J disease control rating (Septoria tritici; [4]),"Test K disease control rating [1, 4]",Test E disease control rating (Botrytis cinerea; [4]),Test H disease control rating (Septoria nodorum; [4]),"Test L disease control rating [2, 4]",Test A disease control rating (Pythium aphanidermatum; [4]),Test G disease control rating (Rhizoctonia oryzae; [4]),"Test B disease control rating [3, 4]",Test D disease control rating (Plasmopara viticola; 200 ppm) [%],Test F disease control rating (Phytophthora infestans; 200 ppm) [%],Test J disease control rating (Septoria tritici; 200 ppm) [%],Test K disease control rating ([1]; 200 ppm) [%],Test E disease control rating (Botrytis cinerea; 200 ppm) [%],Test H disease control rating (Septoria nodorum; 200 ppm) [%],Test L disease control rating ([2]; 200 ppm) [%],Test A disease control rating (Pythium aphanidermatum; 200 ppm) [%],Test G disease control rating (Rhizoctonia oryzae; 200 ppm) [%],Test B disease control rating ([3]; 200 ppm) [%],further results
CC(C)Cn1c(-c2cccc(C#N)c2)c(Cl)nc(-n2cncn2)c1=O [compound 249],0* %,0* %,26* %,0* %,0* %,0* %,0* %,0* %,0* %,0* %,–,–,–,–,–,–,–,–,–,–,Test C disease control rating (Sclerotinia sclerotiorum; [4]): 0* %
CC(C)Cn1c(C(C)C)c(Cl)nc(-n2cncn2)c1=O [compound 207],–,–,–,–,–,–,–,–,–,–,8,0,70,0,50,0,95,0,47,0,Test C disease control rating (Sclerotinia sclerotiorum; 200 ppm): 0%
CC[C@H](C)Cn1c(-c2c(F)cc(F)cc2F)c(Cl)nc(-n2ccc(C)n2)c1=O [compound 219],–,–,–,–,–,–,–,–,–,–,–,–,–,–,–,–,–,–,–,–,Test D disease control rating (Plasmopara viticola; 40 ppm (*)): 36* %; Test F disease control rating (Phytophthora infestans; 40 ppm (*)): 0* %; Test J disease control rating (Septoria tritici; 40 ppm (*)): 100* %; Test K disease control rating ([1]; 40 ppm (*)): 100* %; Test E disease control rating (Botrytis cinerea; 40 ppm (*)): 100* %; Test H disease control rating (Septoria nodorum; 40 ppm (*)): 100* %; Test L disease control rating ([2]; 40 ppm (*)): 100* %; Test C disease control rating (Sclerotinia sclerotiorum; 40 ppm (*)): 70* %; Test A disease control rating (Pythium aphanidermatum; 40 ppm (*)): 0* %; Test G disease control rating (Rhizoctonia oryzae; 40 ppm (*)): 99* %; Test B disease control rating ([3]; 40 ppm (*)): 100* %
CCCCn1c(-c2c(F)cc(F)cc2F)c(Cl)nc(-n2cccn2)c1=O [compound 227],–,–,–,–,–,–,–,–,–,–,–,–,–,–,–,–,–,–,–,–,Test D disease control rating (Plasmopara viticola; 40 ppm (*)): 96* %; Test F disease control rating (Phytophthora infestans; 40 ppm (*)): 0* %; Test J disease control rating (Septoria tritici; 40 ppm (*)): 100* %; Test K disease control rating ([1]; 40 ppm (*)): 100* %; Test E disease control rating (Botrytis cinerea; 40 ppm (*)): 100* %; Test H disease control rating (Septoria nodorum; 40 ppm (*)): 100* %; Test L disease control rating ([2]; 40 ppm (*)): 99* %; Test C disease control rating (Sclerotinia sclerotiorum; 40 ppm (*)): 0* %; Test A disease control rating (Pythium aphanidermatum; 40 ppm (*)): 0* %; Test G disease control rating (Rhizoctonia oryzae; 40 ppm (*)): 100* %; Test B disease control rating ([3]; 40 ppm (*)): 96* %
CCCNC(=O)c1nc(Cl)c(-c2c(F)cccc2F)n(CC(C)CC)c1=O (centres unmarked) [compound 299],–,–,–,–,–,–,–,–,–,–,–,–,–,–,–,–,–,–,–,–,"Test D disease control rating (Plasmopara viticola; [5]): 40%; Test F disease control rating (Phytophthora infestans; [5]): 90%; Test J disease control rating (Septoria tritici; [5]): 100%; Test I disease control rating (fusarium graminearium; [5]): 100%; Test K disease control rating [1, 5]: 100%; Test E disease control rating (Botrytis cinerea; [5]): 99%; Test H disease control rating (Septoria nodorum; [5]): 99%; Test L disease control rating [2, 5]: 95%; Test A disease control rating (Pythium aphanidermatum; [5]): 69%; Test G disease control rating (Rhizoctonia oryzae; [5]): 31%; Test B disease control rating [3, 5]: 40%"
O=c1c(-n2cccn2)nc(Cl)c(-c2c(F)cc(F)cc2F)n1-c1ccccc1F [compound 320],0* %,0* %,100* %,99* %,99* %,100* %,96* %,74* %,80* %,88* %,–,–,–,–,–,–,–,–,–,–,Test I disease control rating (fusarium graminearium; [4]): 0* %
CCC(C)Cn1c(-c2c(F)cccc2F)c(Cl)nc(-n2ccc(Br)n2)c1=O (centres unmarked) [compound 65],–,–,–,–,–,–,–,–,–,–,0,0,100,98,99,0,0,0,83,33,Test I disease control rating (fusarium graminearium; 200 ppm): 0%
O=c1c(-n2cncn2)nc(Cl)c(-c2c(F)cccc2F)n1Cc1ccccc1 [compound 105],–,–,–,–,–,–,–,–,–,–,0,0,98,100,100,64,0,0,24,0,Test I disease control rating (fusarium graminearium; 200 ppm): 0%
CCc1c(Cl)nc(-n2cccn2)c(=O)n1CC(C)C [compound 316],–,–,–,–,–,–,–,–,–,–,–,–,–,–,–,–,–,–,–,–,"Test D disease control rating (Plasmopara viticola; [5]): 0%; Test F disease control rating (Phytophthora infestans; [5]): 0%; Test J disease control rating (Septoria tritici; [5]): 0%; Test I disease control rating (fusarium graminearium; [5]): 0%; Test K disease control rating [1, 5]: 0%; Test E disease control rating (Botrytis cinerea; [5]): 0%; Test H disease control rating (Septoria nodorum; [5]): 0%; Test L disease control rating [2, 5]: 0%; Test A disease control rating (Pythium aphanidermatum; [5]): 54%; Test G disease control rating (Rhizoctonia oryzae; [5]): 0%; Test B disease control rating [3, 5]: 0%"
Cc1ccccc1-n1c(-c2c(F)cccc2F)c(Cl)nc(-n2cccn2)c1=O [compound 328],0* %,0* %,100* %,98* %,99* %,100* %,88* %,0* %,87* %,0* %,–,–,–,–,–,–,–,–,–,–,Test I disease control rating (fusarium graminearium; [4]): 31* %
CCCCCn1c(-c2c(F)cccc2F)c(Cl)nc(-n2cccn2)c1=O [compound 28],–,–,–,–,–,–,–,–,–,–,0,0,100,97,92,99,97,0,31,98,Test I disease control rating (fusarium graminearium; 200 ppm): 0%
O=c1c(-n2cccn2)nc(Cl)c(-c2c(F)cc(F)cc2F)n1-c1ccccc1 [compound 287],47* %,46* %,100* %,99* %,100* %,99* %,99* %,56* %,93* %,99* %,–,–,–,–,–,–,–,–,–,–,Test I disease control rating (fusarium graminearium; [4]): 97* %
CC(C)Cn1c(-c2ccc(Cl)s2)c(Cl)nc(-n2cccn2)c1=O [compound 152],–,–,–,–,–,–,–,–,–,–,16,0,–,–,–,–,–,0,–,–,Test J disease control rating (Septoria tritici; 40 ppm (*)): 91* %; Test I disease control rating (fusarium graminearium; 200 ppm): 0%; Test K disease control rating ([1]; 40 ppm (*)): 55* %; Test E disease control rating (Botrytis cinerea; 40 ppm (*)): 100* %; Test H disease control rating (Septoria nodorum; 40 ppm (*)): 0* %; Test L disease control rating ([2]; 40 ppm (*)): 0* %; Test G disease control rating (Rhizoctonia oryzae; 40 ppm (*)): 0* %; Test B disease control rating ([3]; 40 ppm (*)): 0* %
